Reference: paper PMC7653765 (BMC Complementary Medicine and Therapies, 2020)
Where two headings read alike, the source gives them in different places.

System: 3 T3-L1 adipocytes
Test: Adipocyte glucose uptake test
Assay type: cell-based, mouse
Method: The 3 T3-L1 mouse embryonic fibroblasts were cultured for induction of adipogenesis, and […] 3 T3-L1 adipocytes were plated for glucose uptake. Krebs-Ringer-Phosphate-HEPES (KRPH) buffer was used to prepare 10-point 3-fold gradient diluted samples. After starvation, the adipocytes were rinsed with KRPH buffer. Ninety μL of gradient-diluted samples of different concentrations were added to each well with high- and low-signal control wells and incubated in a CO2 incubator for 30 min. Add 10 μL/well of KRPH buffer containing 0.25 μCi1- [3H] -deoxyglucose and 50 μM 2-deoxyglucose and incubate in a CO2 incubator for 20 min. Wash the cells with DPBS containing 10 mM glucose at 4 °C. Lysate fat cells with sodium hydroxide solution, transfer to scintillation tube, add scintillation fluid, and count with TriCarb.

[1] = mean ± SEM of 3 repeats, read-out: EC50, fat cell glucose uptake, Mean ± SEM
[2] = read-out: EC50, fat cell glucose uptake, N = 1, replicate N = 1, 3 T3-L1 adipocytes, 30 min sample, 20 min [3H]-deoxyglucose
[3] = read-out: EC50, fat cell glucose uptake, N = 2, replicate N = 2
[4] = read-out: EC50, fat cell glucose uptake, N = 3, replicate N = 3

EC50 [1] [nM] | EC50 [2] [nM] | EC50 [3] [nM] | EC50 [4] [nM] | Substance
1.8 ± 0.2 | 0.9 | 1.7 | 2.2 | H-Insulin: recombinant human insulin injection obtained from Lilly, a regular insulin
3.7 ± 0.5 | 2.5 | 5.3 | 3 | S-Insulin: recombinant human-derived insulin from Sigma, a regular insulin, standard control
